Reference: ChEMBL document CHEMBL1201862, “PubChem BioAssay data set” (2004)
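Step 1: Grow cells in 96-well plates. Step 2: Expose to compound for 48 hours at 5 concentrations. Step 3: Interpolate endpoints linearly; if unreached, use highest concentration. GI50 = concentration required for 50% inhibition of growth.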 Calls of active or inactive are those of the source. No stated cut-off is given here; in the data, active = GI50 up to about 1.1 µM and inactive = higher.

Assays:
Assay in all cases: NCI anticancer screen, dose series, 48 h
[1] = tested on: HCT-15
[2] = tested on: SK-MEL-2
[3] = tested on: UO-31
[4] = tested on: SF-268
[5] = tested on: SR
[6] = tested on: MDA-MB-435
[7] = tested on: HL-60
[8] = tested on: SW-620
[9] = tested on: NCI/ADR-RES
[10] = tested on: SNB-75
[11] = tested on: SK-MEL-28
[12] = tested on: U-251
[13] = tested on: HCT-116
[14] = tested on: TK-10
[15] = tested on: RXF 393
[16] = tested on: COLO 205
[17] = tested on: NCI-H23
[18] = tested on: HT-29
[19] = tested on: A498
[20] = tested on: M14
[21] = tested on: MDA-N
[22] = tested on: SN12C
[23] = tested on: ACHN
[24] = tested on: SK-OV-3
[25] = tested on: BT-549
[26] = tested on: RPMI-8226
[27] = tested on: K562
[28] = tested on: T47D
[29] = tested on: MOLT-4
[30] = tested on: UACC-257
[31] = tested on: OVCAR-8
[32] = tested on: CCRF-CEM
[33] = tested on: OVCAR-5
[34] = tested on: IGROV-1
[35] = tested on: SNB-19
[36] = tested on: EKVX
[37] = tested on: PC-3
[38] = tested on: 786-0
[39] = tested on: LOX IMVI
[40] = tested on: HCC 2998
[41] = tested on: Hs-578T
[42] = tested on: SK-MEL-5
[43] = tested on: SF-539
[44] = tested on: A549
[45] = tested on: UACC-62
[46] = tested on: OVCAR-4
[47] = tested on: KM12
[48] = tested on: OVCAR-3
[49] = tested on: NCI-H226
[50] = tested on: Malme-3M
[51] = tested on: MCF7
[52] = tested on: DU-145
[53] = tested on: HOP-92
[54] = tested on: CAKI-1
[55] = tested on: SF-295
[56] = tested on: MDA-MB-231
[57] = tested on: NCI-H522
[58] = tested on: NCI-H460
[59] = tested on: HOP-62

CCOC(=O)C(NC(=O)Nc1ccc(Cl)c(Cl)c1)C(F)(F)F (stereo unspecified)
GI50 [1]: 40.9 µM
GI50 [2]: 63 µM (inactive)
GI50 [3]: 49.8 µM (inactive)
GI50 [4]: > 100 µM (inactive)
GI50 [5]: > 100 µM (inactive)
GI50 [6]: 87.1 µM (inactive)
GI50 [7]: > 100 µM (inactive)
GI50 [8]: > 100 µM (inactive)
GI50 [9]: > 100 µM (inactive)
GI50 [10]: > 100 µM (inactive)
GI50 [11]: > 100 µM (inactive)
GI50 [12]: > 100 µM (inactive)
GI50 [13]: > 100 µM (inactive)
GI50 [14]: > 100 µM (inactive)
GI50 [15]: > 100 µM (inactive)
GI50 [16]: > 100 µM (inactive)
GI50 [17]: > 100 µM (inactive)
GI50 [18]: > 100 µM (inactive)
GI50 [19]: > 100 µM (inactive)
GI50 [20]: > 100 µM (inactive)
GI50 [21]: > 100 µM (inactive)
GI50 [22]: > 100 µM (inactive)
GI50 [23]: 57.4 µM (inactive)
GI50 [24]: > 100 µM (inactive)
GI50 [25]: 45.2 µM (inactive)
GI50 [26]: > 100 µM (inactive)
GI50 [27]: 92.5 µM (inactive)
GI50 [28]: > 100 µM (inactive)
GI50 [29]: > 100 µM (inactive)
GI50 [30]: > 100 µM (inactive)
GI50 [31]: > 100 µM (inactive)
GI50 [32]: > 100 µM (inactive)
GI50 [33]: > 100 µM (inactive)
GI50 [34]: > 100 µM (inactive)
GI50 [35]: > 100 µM (inactive)
GI50 [36]: 77.1 µM (inactive)
GI50 [37]: > 100 µM (inactive)
GI50 [38]: > 100 µM (inactive)
GI50 [39]: > 100 µM (inactive)
GI50 [40]: > 100 µM (inactive)
GI50 [41]: 40.5 µM (inactive)
GI50 [42]: > 100 µM (inactive)
GI50 [43]: > 100 µM (inactive)
GI50 [44]: > 100 µM (inactive)

O=C1c2ccccc2C(=O)N1/N=C1/SC(=N\c2ccccc2)/C(=N/c2ccccc2)N1c1ccccc1
GI50 [1]: > 47.5 µM
GI50 [2]: > 55.2 µM (inactive)
GI50 [3]: 25.7 µM (inactive)
GI50 [45]: > 95.5 µM (inactive)
GI50 [4]: > 100 µM (inactive)
GI50 [46]: > 100 µM (inactive)
GI50 [5]: > 31.6 µM (inactive)
GI50 [6]: > 100 µM (inactive)
GI50 [7]: > 40.4 µM (inactive)
GI50 [47]: > 38.8 µM (inactive)
GI50 [8]: > 61.7 µM (inactive)
GI50 [9]: > 100 µM (inactive)
GI50 [10]: 19.9 µM (inactive)
GI50 [11]: > 35.1 µM (inactive)
GI50 [12]: 24.9 µM (inactive)
GI50 [13]: 38.6 µM (inactive)
GI50 [14]: > 58.5 µM (inactive)
GI50 [48]: > 100 µM (inactive)
GI50 [15]: 4.47 µM (inactive)
GI50 [16]: > 85.3 µM (inactive)
GI50 [17]: > 46.8 µM (inactive)
GI50 [18]: > 50 µM (inactive)
GI50 [19]: 19.7 µM (inactive)
GI50 [20]: 77.1 µM (inactive)
GI50 [49]: > 71.3 µM (inactive)
GI50 [50]: > 47.3 µM (inactive)
GI50 [22]: > 39.3 µM (inactive)
GI50 [23]: > 66.4 µM (inactive)
GI50 [25]: > 48.4 µM (inactive)
GI50 [51]: > 68.1 µM (inactive)
GI50 [26]: > 21.1 µM (inactive)
GI50 [52]: > 100 µM (inactive)
GI50 [27]: > 60 µM (inactive)
GI50 [53]: > 27.9 µM (inactive)
GI50 [28]: > 100 µM (inactive)
GI50 [29]: > 65.8 µM (inactive)
GI50 [30]: > 100 µM (inactive)
GI50 [31]: 40.1 µM (inactive)
GI50 [54]: > 100 µM (inactive)
GI50 [55]: 26.4 µM (inactive)
GI50 [32]: > 51.3 µM (inactive)
GI50 [33]: > 100 µM (inactive)
GI50 [34]: > 78.7 µM (inactive)
GI50 [56]: > 10 µM (inactive)
GI50 [35]: > 90.4 µM (inactive)
GI50 [36]: > 76.9 µM (inactive)
GI50 [37]: > 52.6 µM (inactive)
GI50 [38]: 11.4 µM (inactive)
GI50 [39]: > 100 µM (inactive)
GI50 [40]: > 48.5 µM (inactive)
GI50 [57]: 97.7 µM (inactive)
GI50 [41]: > 22.9 µM (inactive)
GI50 [58]: > 61.8 µM (inactive)
GI50 [42]: > 39 µM (inactive)
GI50 [43]: 33.2 µM (inactive)
GI50 [44]: > 21 µM (inactive)
GI50 [59]: > 45.6 µM (inactive)
